Assay results reported in PubChem BioAssay (NCI).
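How tested: cells in 96-well plates exposed to compound for 48 hours at five concentrations. At the GI50, growth is halved. Definition used: TGI = concentration required for complete inhibition of growth.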

Experiments:
Assay in all cases: NCI-60 cell line screen, 48 h
DU-145 prostate = test system: DU-145 prostate
HS 578T breast = test system: HS 578T breast
M14 melanoma = test system: M14 melanoma
MALME-3M melanoma = test system: MALME-3M melanoma
MCF7 breast = test system: MCF7 breast
NCI/ADR-RES ovarian = test system: NCI/ADR-RES ovarian
PC-3 prostate = test system: PC-3 prostate
RXF 393 renal = test system: RXF 393 renal
SK-MEL-5 melanoma = test system: SK-MEL-5 melanoma
SNB-19 CNS = test system: SNB-19 CNS

SMILES | TGI (DU-145 prostate) [µM] | TGI (HS 578T breast) [µM] | TGI (M14 melanoma) [µM] | TGI (MALME-3M melanoma) [µM] | TGI (MCF7 breast) [µM] | TGI (NCI/ADR-RES ovarian) [µM] | TGI (PC-3 prostate) [µM] | TGI (RXF 393 renal) [µM] | TGI (SK-MEL-5 melanoma) [µM] | TGI (SNB-19 CNS) [µM] | GI50 (DU-145 prostate) [µM] | GI50 (HS 578T breast) [µM] | GI50 (M14 melanoma) [µM] | GI50 (MALME-3M melanoma) [µM] | GI50 (MCF7 breast) [µM] | GI50 (NCI/ADR-RES ovarian) [µM] | GI50 (PC-3 prostate) [µM] | GI50 (RXF 393 renal) [µM] | GI50 (SK-MEL-5 melanoma) [µM] | GI50 (SNB-19 CNS) [µM]
Cc1ccc(C)n1-c1ccccc1C1C=Cn2c(=O)oc3c(OC(C)C)c(OC(C)C)c(O)c1c32 (centres undefined) | > 100 | > 100 | > 100 | > 100 | > 100 | > 100 | 93.9 | 32.7 | > 100 | > 100 | – | – | – | – | – | – | – | – | – | –
CCOc1ccccc1N=NC1C(=O)N(C(=O)CC(=O)Nc2ccccc2C)N=C1C (centres undefined) | > 100 | 31.5 | > 100 | > 100 | > 100 | > 100 | > 100 | 89.4 | > 100 | – | – | – | – | – | – | – | – | – | – | –
COC(=O)NC(Cc1ccccc1)NC(=O)OC(C)(C)C (centres undefined) | > 100 | > 100 | > 100 | > 100 | > 100 | > 100 | > 100 | > 100 | > 100 | > 100 | – | – | – | – | – | – | – | – | – | –
N=c1ncn(C/C=C/c2ccccc2)c2nc[nH]c12 | > 100 | > 100 | > 100 | > 100 | > 100 | > 100 | > 100 | > 100 | > 100 | > 100 | – | – | – | – | – | – | – | – | – | –
CCCCCCCCCCCC(=O)N(CCCCCCCCC)CC(O)C(O)C(OC1OC(CO)C(O)C(O)C1O)C(O)CO (centres undefined) | 33.8 | > 100 | 36.9 | 37.7 | > 100 | 38.7 | 39.2 | 50 | 35 | 40.4 | – | – | – | – | – | – | – | – | – | –
CC1(C)CCC2=C(O1)c1ccccc1C(=Nc1ccc([N+](=O)[O-])cc1)C2=O | 30.4 | > 100 | 20.5 | 29.7 | 27.7 | > 100 | 31.5 | 32.7 | 30.3 | 32.5 | 16.8 | – | – | – | – | – | – | – | – | –
NS(=O)(=O)c1ccc(-c2ccc([As](=O)(O)O)cc2)cc1 | > 100 | > 100 | > 100 | > 100 | > 100 | > 100 | > 100 | > 100 | > 100 | > 100 | – | – | – | – | – | – | – | – | – | –
N#CCCN(CCCCN(CCC#N)C(=O)Nc1ccccc1)C(=O)Nc1ccccc1 | > 100 | > 100 | > 100 | > 100 | > 100 | > 100 | > 100 | > 100 | > 100 | > 100 | – | – | – | – | – | – | – | – | – | –
Clc1nc2nc(N3CCNCC3)nc(N3CCCC3)c2[nH]1 | 30.9 | > 100 | 34.6 | 36.3 | 32.2 | > 100 | 33.9 | 27.9 | 28.8 | 31.8 | – | – | – | – | – | – | – | – | – | –
COc1ccc(NC(=O)CSC(=O)c2ccccc2)c(SCCSSCCSc2cc(OC)ccc2NC(=O)CSC(=O)c2ccccc2)c1 | > 100 | > 100 | > 100 | > 100 | > 100 | > 100 | > 100 | > 100 | > 100 | > 100 | – | – | – | – | – | – | – | – | – | –
N=C(N)SCc1nc(-c2ccc(Cl)cc2)no1 | 63 | > 100 | 45.6 | 34.6 | 30.1 | > 100 | 37.5 | 25 | > 100 | > 100 | – | – | – | – | – | – | – | – | – | –
N#Cc1sc2c(c1OC(=O)c1ccco1)c(=O)n(-c1ccccc1)c(=S)n2-c1ccccc1 | > 100 | > 100 | 73.3 | 58.2 | > 100 | 82 | > 100 | 69.6 | 33.7 | > 100 | – | – | – | – | – | – | – | – | – | –
CCC[N+](C)(C)CCCNC(=O)c1c(O)c2ccccc2[nH]c1=O | > 100 | > 100 | – | > 100 | > 100 | > 100 | > 100 | > 100 | 54.8 | – | – | – | – | – | – | – | – | – | – | –
CCOc1ccc2c(c1)C(/C(C(Cl)=C(Cl)Cl)=[N+](/[O-])OC(=O)c1ccccc1)=N2 | > 100 | > 100 | > 100 | > 100 | > 100 | > 100 | > 100 | > 100 | > 100 | > 100 | – | – | – | – | – | – | – | – | – | –
COC(=O)C1=C(C)NC(C)=C(C(=O)OC)C1c1cccc(/[N+]([O-])=C/c2ccccc2)c1 | > 100 | > 100 | 35 | 29.9 | 34.3 | 58 | > 100 | 30.3 | > 100 | > 100 | – | – | – | – | – | – | – | – | – | –
COc1ccc(/C(=N/O)c2ccccc2C2=Nc3ccccc3C(NCc3ccccc3)O2)cc1C (centres undefined) | > 100 | > 100 | > 100 | 52.7 | > 100 | > 100 | > 100 | > 100 | 32.8 | > 100 | – | – | – | – | – | – | – | – | – | –
COC1(OC)CC(CO)(COc2cc(Cl)nc(N)n2)C1 | > 100 | > 100 | – | > 100 | > 100 | > 100 | > 100 | > 100 | > 100 | > 100 | – | – | – | – | – | – | – | – | – | –

SMILES | TGI (DU-145 prostate) [µM] | TGI (HS 578T breast) [µM] | TGI (M14 melanoma) [µM] | TGI (MALME-3M melanoma) [µM] | TGI (MCF7 breast) [µM] | TGI (NCI/ADR-RES ovarian) [µM] | TGI (PC-3 prostate) [µM] | TGI (RXF 393 renal) [µM] | TGI (SK-MEL-5 melanoma) [µM] | TGI (SNB-19 CNS) [µM] | GI50 (DU-145 prostate) [µM] | GI50 (HS 578T breast) [µM] | GI50 (M14 melanoma) [µM] | GI50 (MALME-3M melanoma) [µM] | GI50 (MCF7 breast) [µM] | GI50 (NCI/ADR-RES ovarian) [µM] | GI50 (PC-3 prostate) [µM] | GI50 (RXF 393 renal) [µM] | GI50 (SK-MEL-5 melanoma) [µM] | GI50 (SNB-19 CNS) [µM]
O=C(CCCCCNC(=O)c1ccc(Cl)cc1)NO | > 100 | > 100 | > 100 | > 100 | > 100 | 5.07 | 9 | 19.8 | 13.9 | > 100 | – | – | – | – | – | – | – | – | – | –
CCOC(=O)Cc1[nH]c(C(=O)c2ccccc2)cc1C(=O)c1ccccc1 | > 10 | > 100 | > 100 | > 100 | > 10 | > 100 | > 10 | > 100 | > 100 | > 100 | – | – | – | – | – | – | – | – | – | –
CSc1nnnc2ccccc12 | > 100 | > 100 | > 100 | > 100 | > 100 | > 100 | > 100 | > 100 | > 100 | > 100 | – | – | – | – | – | – | – | – | – | –
Cc1ccc2sc3c(NCCCN)nc4ccccc4c3c(=O)c2c1 | 3.39 | 5.19 | 3.61 | 3.3 | 3.36 | 3.45 | 3.4 | 3.02 | 3.35 | 3.69 | 1.87 | 2.05 | 1.91 | 1.74 | 1.77 | 1.8 | 1.71 | 1.52 | 1.79 | 1.86
O=C(O)C(Cc1ccccc1)Cc1ccccc1 | > 100 | > 100 | > 100 | > 100 | > 100 | > 100 | > 100 | > 100 | > 100 | > 100 | – | – | – | – | – | – | – | – | – | –
N#Cc1c(/C=C/c2ccccc2)c2c([nH]c1=S)CCCCC2 | > 100 | > 100 | > 100 | > 100 | > 100 | > 100 | > 100 | > 100 | > 100 | > 100 | – | – | – | – | – | – | – | – | – | –
C1=CC2C(C3CN(c4ccccc4)N=C13)C1C3C4C=CC21C=CC43 (centres undefined) | > 100 | > 100 | > 100 | > 100 | > 100 | > 100 | > 100 | > 100 | > 100 | > 100 | – | – | – | – | – | – | – | – | – | –
CCn1c(CCCc2nc3c([nH]2)c(=O)n(C)c(=O)n3C)nc2c1c(=O)n(C)c(=O)n2C | > 100 | > 100 | > 100 | > 100 | > 100 | > 100 | > 100 | > 100 | 27.8 | > 100 | – | – | – | – | – | – | – | – | – | –
Cc1cc(N(CCC#N)CCC#N)ccc1/C(N=Nc1ccc(C(=O)O)cc1)=N\NC(=O)c1ccccc1 | > 100 | 55.5 | > 100 | > 100 | > 100 | > 100 | > 100 | > 100 | > 100 | > 100 | – | – | – | – | – | – | – | – | – | –
CCCCCc1cc2cc3c(c(O)c2c(=O)[nH]1)C1(CCC3)C(=O)c2c(O)ccc(O)c2C1=O | > 100 | > 100 | > 100 | > 100 | > 100 | > 100 | > 100 | > 100 | > 100 | > 100 | – | – | – | – | – | – | – | – | – | –
NC(=Nc1ccccc1)N/N=C/c1c[nH]c2ccccc12 | 2.59 | 2.17 | 1.53 | 3.74 | 15 | 0.455 | 12.1 | 0.701 | 1.85 | 14.8 | – | – | – | – | – | – | – | – | – | –
CCOP(=O)(OCC)/C(=C/n1c(=S)[nH]c2ccccc21)C(=O)OC | > 100 | > 100 | > 100 | > 100 | > 100 | > 100 | > 100 | > 100 | > 100 | > 100 | – | – | – | – | – | – | – | – | – | > 100
c1ccc2c(c1)nnn2C1CCCCO1 (centres undefined) | > 100 | > 100 | > 100 | > 100 | > 100 | > 100 | > 100 | > 100 | > 100 | > 100 | – | – | – | – | – | – | – | – | – | –
O=C(CC(=O)N1N=C(c2ccccc2)C(N=Nc2ccc(S(=O)(=O)CCOS(=O)(=O)O)cc2)C1=O)Nc1ccc(Cl)cc1 (centres undefined) | > 100 | 99.6 | > 100 | > 100 | > 100 | > 100 | > 100 | > 100 | > 100 | > 100 | – | – | – | – | – | – | – | – | – | –
CC1(C)CCCCCC(O)C(O)CCC(C)(C)C1=O (centres undefined) | > 100 | > 100 | > 100 | > 100 | > 100 | > 100 | > 100 | > 100 | > 100 | > 100 | – | – | – | – | – | – | – | – | – | –
COc1cc2c3c(n(C)c(=O)c2cc1OC)-c1cc2c(cc1/C3=C\CCCCl)OCO2 | > 100 | > 100 | > 100 | > 100 | > 100 | > 100 | > 100 | 26.8 | 70.6 | > 100 | 35.9 | – | – | – | – | – | – | – | – | –
N=C1C=CC(=C(c2ccc(N)cc2)c2ccc(N)cc2)C=C1 | 17.7 | 8.18 | 15.8 | 13.3 | 13.2 | 49.3 | 12.4 | 23 | 9.5 | 18.6 | – | – | – | – | – | – | – | – | – | –
